Earlier results on one molecule are cited in patent publication US20180191016A1, “FLOW BATTERIES INC[…] PHE[…] WITHIN AN AQUEOUS ELECTROLYTE SOLUTION” (LOCKHEED MARTIN ADVANCED ENERGY STORAGE, LLC, priority 2017, published 2018).

For the data set the following is noted: compared to a reversible hydrogen electrode.

For `c1ccc2c(c1)Nc1ccccc1S2` [phenothiazine], the standard reduction potential result was “approximately +0.9 V”.
